Several values for one entry are separate records, joined by “and”; a condition that tells them apart may be missing. Identical values can stand only once. Results filed as inconclusive are left out.
System: BDF1 mice, colon carcinoma 38 sc, T/C %
Test: NCI In Vivo Anticancer Drug Screen. Data for tumor model Colon Carcinoma 38 (subcutaneous) in B6D2F1 (BDF1) mice
Outline: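 Mice with transplanted tumors are treated with compound or vehicle. Survival or tumor size is then measured in both groups. The ratio of treated to control gives the reported figure.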

[1] = endpoint: median tumor weight (est.), dose: 25.0 mg/kg/injection, schedule: Q07DX002 (ip), vehicle: saline with Tween-80, higher = larger tumour
[2] = endpoint: median tumor weight (est.), dose: 100.0 mg/kg/injection, schedule: Q07DX002 (ip), vehicle: saline with Tween-80, higher = larger tumour
[3] = endpoint: median tumor weight (est.), dose: 200.0 mg/kg/injection, schedule: Q07DX002 (ip), vehicle: saline with Tween-80, higher = larger tumour

O=C1C2CC=CCC2C(=O)N1SC(Cl)(Cl)Cl (stereo unspecified)
T/C (endpoint: median tumor weight (est.), dose: 3.12 mg/kg/injection, schedule: Q07DX002 (ip), vehicle: saline with Tween-80, higher = larger tumour): 107 % of control
T/C (endpoint: median tumor weight (est.), dose: 6.25 mg/kg/injection, schedule: Q07DX002 (ip), vehicle: saline with Tween-80, higher = larger tumour): 110 % of control
T/C (endpoint: median tumor weight (est.), dose: 12.5 mg/kg/injection, schedule: Q07DX002 (ip), vehicle: saline with Tween-80, higher = larger tumour): 99 % of control
T/C [1]: 84 % of control

CC(=O)Oc1ccccc1O
T/C (endpoint: median tumor weight (est.), dose: 50.0 mg/kg/injection, schedule: Q07DX002 (ip), vehicle: saline + Tween-80 + alcohol, higher = larger tumour): 158 % of control

CC1(C)N=C(N)N=C(N)N1c1ccc(CCCCc2ccc(S(=O)(=O)F)cc2Cl)c(Cl)c1
T/C (endpoint: median survival time, dose: 35.0 mg/kg/injection, schedule: Q01DX013 (ip), vehicle: saline with Tween-80, higher = longer survival): 117 % of control
T/C (endpoint: median survival time, dose: 92.0 mg/kg/injection, schedule: Q01DX013 (ip), vehicle: saline with Tween-80, higher = longer survival): 157 % of control
T/C (endpoint: median tumor weight (est.), dose: 6.25 mg/kg/injection, schedule: Q07DX002 (ip), vehicle: saline, higher = larger tumour): 44 % of control
T/C (endpoint: median tumor weight (est.), dose: 50.0 mg/kg/injection, schedule: Q07DX002 (ip), vehicle: saline, higher = larger tumour): 78 % of control
T/C (endpoint: median tumor weight (est.), dose: 200.0 mg/kg/injection, schedule: Q07DX002 (ip), vehicle: saline, higher = larger tumour): 1 % of control and 24 % of control and 26 % of control

CCCCCCCCCCCCCCCCCC(=O)OCC(=O)OCC(=O)[C@]1(O)Cc2c(O)c3c(c(O)c2[C@@H](OC2CC(N)C(O)C(C)O2)C1)C(=O)c1c(OC)cccc1C3=O (stereo partly specified)
T/C (endpoint: median survival time, dose: 11.5 mg/kg/injection, schedule: Q07DX002 (iv), vehicle: saline, higher = longer survival): 111 % of control
T/C (endpoint: median tumor weight (est.), dose: 1.69 mg/kg/injection, schedule: Q07DX002 (ip), vehicle: saline with Tween-80, higher = larger tumour): 70 % of control
T/C (endpoint: median tumor weight (est.), dose: 3.38 mg/kg/injection, schedule: Q07DX002 (ip), vehicle: saline with Tween-80, higher = larger tumour): 93 % of control
T/C (endpoint: median tumor weight (est.), dose: 6.75 mg/kg/injection, schedule: Q07DX002 (ip), vehicle: saline with Tween-80, higher = larger tumour): 79 % of control and 89 % of control and 97 % of control
T/C (endpoint: median tumor weight (est.), dose: 27.0 mg/kg/injection, schedule: Q07DX002 (ip), vehicle: saline with Tween-80, higher = larger tumour): 18 % of control and 37 % of control

FC(F)(F)c1nc2nc(Cl)c(Cl)nc2[nH]1
T/C [1]: 93 % of control

COC(=O)C(N)CCCCNc1ccc2c(cc1=O)C(NC(C)=O)CCc1cc(OC)c(OC)c(OC)c1-2 (stereo unspecified)
T/C (endpoint: median tumor weight (est.), dose: 287.0 mg/kg/injection, schedule: Q07DX002 (ip), vehicle: saline, higher = larger tumour): 78 % of control

CCCN1COC(OCC)C(C)(C)C1 (stereo unspecified)
T/C [1]: 73 % of control
T/C [2]: 68 % of control and 73 % of control
T/C [3]: 77 % of control

COC(=O)C1(F)C(=O)NC(=O)NC1OC (stereo unspecified)
T/C (endpoint: median tumor weight (est.), dose: 100.0 mg/kg/injection, schedule: Q07DX002 (ip), vehicle: Klucel (hydroxypropylcellulose) (HPC), higher = larger tumour): 90 % of control
T/C [2]: 83 % of control
T/C (endpoint: median tumor weight (est.), dose: 200.0 mg/kg/injection, schedule: Q07DX002 (ip), vehicle: Klucel (hydroxypropylcellulose) (HPC), higher = larger tumour): 72 % of control
T/C [3]: 83 % of control
T/C (endpoint: median tumor weight (est.), dose: 400.0 mg/kg/injection, schedule: Q07DX002 (ip), vehicle: saline with Tween-80, higher = larger tumour): 55 % of control
T/C (endpoint: median tumor weight (est.), dose: 800.0 mg/kg/injection, schedule: Q07DX002 (ip), vehicle: saline with Tween-80, higher = larger tumour): 85 % of control

— PubChem BioAssay AID212 (DTP/NCI, 2004)
